According to the supplement of paper PMC4862054:

Assays:
Test in all cases: normalised viability (% of control), CellTiter-Blue; higher = more viable cells (about 100 = DMSO control)
Conditions in all cases: incubation time: 72 h
[1] = tested on: CAL-148
Experimental: (§1)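 DSRT, CellTiter-Blue viability, 72 h incubation. Signal is normalised to DMSO and benzethonium chloride controls. Value is the normalised response at dose 7.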

[2] = tested on: CAL-51
Experimental: as §1

[3] = tested on: CAL-85-1
Experimental: as §1

[4] = tested on: DU-4475
Experimental: as §1

[5] = tested on: HDQ-P1
Experimental: as §1

[6] = tested on: MDA-MB-453
Experimental: as §1

| SMILES | normalised viability [1] [%] | normalised viability [2] [%] | normalised viability [3] [%] | normalised viability [4] [%] | normalised viability [5] [%] | normalised viability [6] [%] |
| --- | --- | --- | --- | --- | --- | --- |
| Cc1ccc(C(=O)N(CCCN)[C@@H](c2oc3cc(Cl)ccc3c(=O)c2Cc2ccccc2)C(C)C)cc1 (100 nM) | 18.9 | 34.7 | 30.1 | 43 | 72.5 | 25.4 |
| CCC1=C[C@@H]2CN(C1)Cc1c([nH]c3ccccc13)[C@@](C(=O)OC)(c1cc3c(cc1OC)N(C)[C@H]1[C@@](O)(C(=O)OC)[C@H](OC(C)=O)[C@]4(CC)C=CCN5CC[C@]31[C@@H]54)C2 [Vinorelbine] (1000 nM) | 21.1 | 19.7 | 37.5 | 29 | 38.6 | 28 |
| Oc1nc(-c2ccc(C(F)(F)F)cc2)nc2c1CSCC2 [XAV-939] (1000 nM) | 101 | 93.2 | 81.8 | 108 | 103 | 90.3 |
| Cn1c(Nc2ccc(C(F)(F)F)cc2)nc2cc(Oc3ccnc(-c4ncc(C(F)(F)F)[nH]4)c3)ccc21 [RAF265] (100 nM) | 101 | 86.1 | 80.5 | 104 | 74.6 | 83.7 |
| COc1cc([C@@H]2c3cc4c(cc3[C@@H](O[C@@H]3O[C@@H]5CO[C@@H](C)O[C@H]5[C@H](O)[C@H]3O)[C@H]3COC(=O)[C@H]23)OCO4)cc(OC)c1O [Etoposide] (1000 nM) | 63.4 | 35.4 | 90.8 | 12.3 | 88.8 | 93.4 |
| Cc1ccc(-n2nc(C(C)(C)C)cc2NC(=O)Nc2ccc(OCCN3CCOCC3)c3ccccc23)cc1 [Doramapimod] (1000 nM) | 105 | 101 | 73.5 | 122 | 66.7 | 87.9 |
| N[C@@H](CSC(c1ccccc1)(c1ccccc1)c1ccccc1)C(=O)O [S-trityl-L-cysteine] (4000 nM) | 117 | 85.1 | 98.3 | 103 | 86.5 | 94.3 |
| COc1cc2nccc(Oc3ccc(NC(=O)C4(C(=O)Nc5ccc(F)cc5)CC4)cc3)c2cc1OC [Cabozantinib] (100 nM) | 107 | 102 | 79.6 | 91.8 | 85.5 | 95.3 |
| N.N.[Cl][Pt][Cl] [Cisplatin] (1000 nM) | 112 | 104 | 86.4 | 110 | 108 | 103 |
| Cn1c(CCCC(=O)O)nc2cc(N(CCCl)CCCl)ccc21 [Bendamustine] (1000 nM) | 117 | 109 | 86.3 | 112 | 108 | 102 |
| O=C1CCC(N2C(=O)c3ccccc3C2=O)C(=O)N1 (stereo not drawn) [Thalidomide] (1000 nM) | 116 | 84.8 | 99.4 | 97 | 81.1 | 103 |
| Clc1ccc(Nc2nnc(Cc3ccncc3)c3ccccc23)cc1 [Vatalanib] (1000 nM) | 83.4 | 101 | 92.5 | 97.8 | 98.6 | 91.6 |
| CCC1(c2ccc(N)cc2)CCC(=O)NC1=O (stereo not drawn) [Aminoglutethimide] (1000 nM) | 113 | 91 | 95.2 | 86.1 | 79.3 | 88.8 |
| O=P1(NCCCl)OCCCN1CCCl (stereo not drawn) [Ifosfamide] (1000 nM) | 101 | 114 | 81.2 | 101 | 103 | 112 |
| CO[C@H]1/C=C\C=C(/C)C(=O)NC2=CC(=O)C(NCCN(C)C)=C(C[C@@H](C)C[C@H](OC)[C@H](O)[C@@H](C)/C=C(\C)[C@@H]1OC(N)=O)C2=O [Alvespimycin] (100 nM) | 15.6 | 34.7 | 33.1 | 0.89 | 38 | 6.21 |
| CC1(C)NC(=O)N(c2ccc([N+](=O)[O-])c(C(F)(F)F)c2)C1=O [Nilutamide] (1000 nM) | 108 | 99.7 | 94.2 | 102 | 123 | 108 |
| C[C@]12CC[C@@H]3c4ccc(O)cc4C[C@@H](CCCCCCCCC[S+]([O-])CCCC(F)(F)C(F)(F)F)[C@H]3[C@@H]1CC[C@@H]2O (stereo partly drawn) [Fulvestrant] (1000 nM) | 92.4 | 111 | 84.9 | 93.5 | 84.3 | 84.6 |
| CN(C)/N=N/c1[nH]cnc1C(N)=O [Dacarbazine] (1000 nM) | 106 | 85.8 | 90 | 96.2 | 110 | 109 |
